This note sets out measurements from patent US20070225245A1, “Viral vector driven mutant bacterial cytosine deaminase gene and uses thereof” (priority 1998, published 2007).

SMILES strings stand for the structures.

Data set [1] relates to human pancreatic cancer cells. Particulars: Uninfected cells; 5-FC at 764 μg/ml.
Procedure: To measure the cytotoxicity of 5-FU and 5-FC, glioma cells or pancreatic cancer cells were plated into 96-well tissue culture plates at 5×10^3 cells/well, and allowed to adhere overnight. Next day, serial dilutions of 5-FU or 5-FC were added directly to cells. Cells were incubated for 5 days, and relative cell density was determined using a crystal violet staining assay. Cell culture medium was removed and surviving cells were then fixed and stained with 2% (w/v) crystal violet (Sigma-Aldrich) in 70% ethanol for 3 h at room temperature. The plates were washed extensively, air-dried and optical density was measured at 570 nm using a V Max plate reader (Molecular Devices Corporation, Sunnyvale Calif.). Fractional cell survival at each drug concentration was calculated as the ratio of absorbance at 570 nm of cells incubated in the presence versus absence of drug, corrected for background absorbance of media alone. Fractional cell survival data were plotted against drug concentration and IC50 values extrapolated by piecewise linear regression as the concentration of drug producing a 50% reduction in corrected absorbance.
The test system of data set [2] is BXPC-3 pancreatic tumor cells transfected with AdCMVCD. The experiment in a line: MRS of 5-FC to 5-FU conversion in vitro. Format: cell-based, human. Particulars: after 120 minutes; 3.8 mM 5-FC. As for the experimental part:
In vitro models of molecular chemotherapy were developed using the AdCMVCD cytosine deaminase toxin gene for the transfection of both human pancreatic and colon cancer cell lines (BXPC-3, WiDR, LS174T). […] In this study, an in vitro treatment model was proposed using 3×10^6 BXPC-3 pancreatic tumor cells transfected at a MOI of 100 with AdCMVCD. These cells were then examined by MRS at 0, 2, 6 and 24 hours for conversion of 5-FC to 5-FU.
Initial studies have shown the sensitivity of fluorine spectroscopy by its ability to detect 3.8 mM 5-FC when initially added to transfected BXPC-3 cells. […] However, after 120 minutes, the signal for 5-FC had dropped to 50% of its original intensity and the signal for 5-FU had increased to approximately 40% of the original 5-FC signal indicating conversion of 5-FC to 5-FU.

The test system of data set [3] is Intracranial U87MG gliomas. The experiment in a line: Survival, intracranial glioma, HSV and 5-FC. Format: in vivo, SCID mice. Particulars: saline plus 5-FC. As for the experimental part: Two days later, mice were begun on twice daily intraperitoneal injections of saline (1 ml) or 5-FC (500 mg/kg). Mice were followed for survival.
Studies were undertaken to determine the efficacy of the HSV construct, M012, in in vivo murine glioma models. […] The median survival of animals receiving saline plus 5-FC was 34 days. In a similar study with the D54MG intracranial model, median survival of mice injected intratumorally with M012 and administered 5-FC was 40 days, compared to 27 days with M012 plus saline and 19 days with saline and 5-FC (FIG. 14).

Data set [4] has as its system Intracranial U87MG Human Gliomas. As to the kind of experiment: Survival, intracranial glioma, intratumoral Ad and systemic 5-FC. Particulars: for Survival 20% / Survival Median: Saline (no virus) + 5-FC. It counts as in vivo, SCID mice. As for the experimental part:
U87MG and D54MG cells (5×10^5) were stereotactically injected into the right frontal cortex of SCID mice. Tumors were established for 5 days before intratumoral injection of AdCMVCD (10^8 or 10^9 pfu/mouse). Mice were then treated IP with 5-FC (500 mg/kg bid) on days 2-9 post infection and monitored for survival. Kaplan-Meier survival curves and median and 20% survival values were calculated by standard methods.
U87MG cells (5×10^5), the stringent glioma model, were stereotactically injected into the right frontal cortex of SCID mice. Tumors were established for 5 days before intratumoral injection of AdE1ACD or AdCMVCD (10^8 or 10^9 pfu/mouse). Mice were then treated IP with 5-FC (500 mg/kg bid) on days 2-9 post infection and monitored for survival. Kaplan-Meier survival curves and median and 20% survival values were calculated by standard methods.

Data set [5] relates to WiDr human colon cancer cells. The experiment in a line: Radiation dose response, colony formation after Ad infection and 5-FC. It counts as cell-based. Particulars: No Viral Infection, 20 mg/ml 5-FC. As for the experimental part:
WiDr human colon cancer cells were plated at a density of 5×10^5 cells/well in 6-well tissue culture plates 24 hours prior to adenoviral infection. WiDr cells were then infected with AdCMVCD at a multiplicity of infection (MOI) of 1 or 10 plaque forming units (pfu) per cell in 0.5 ml Opti-Mem (Gibco-BRL) for 1.5 hours. A control virus that encodes the reporter gene E. coli LacZ which produces β-galactosidase (AdCMVLacZ) was provided by Dr. De-Chu Tang. Viral infection was stopped by the addition of 3 ml of complete growth media and the cells were returned to the incubator overnight. The following day, media was replaced with media supplemented with the appropriate concentration of 5-FC or no drug. The cells were then incubated in 5-FC for 3 days. The cells were then mock irradiated or irradiated on ice using a Picker ^60Co therapy unit (Cleveland, Ohio) at a dose rate of 80 cGy/min. The cells were then plated for colony formation. Colonies formed in 14 days and were fixed in ethanol and stained with 1% crystal violet.
SK-ChA-1 cells were infected with 10 MOI of AdCMVCD, or AdCMVLacZ, treated with 0, 10 or 20 μg/ml 5-FC for 72 hours, then irradiated with 0 or 8 Gy (80 cGy/min). The cells were irradiated on ice, then trypsinized, counted and plated in triplicate in 25 cm^2 tissue culture dishes (Costar) in media free of 5-FC. The plates were fixed and stained 14 days later. For both WiDr and SK-ChA-1 cells, colonies containing greater than 50 cells were counted. Percent survival was calculated as the average number of colonies counted divided by the number of cells plated times plating efficiency (PE); where PE was the fraction of colonies counted divided by cells plated without radiation. The dose response curve was fitted using the Fit v 2.4 software (provided by Dr. N. Albright, University of California at San Francisco, San Francisco, Calif.).

Another data set relates to BXPC-3. The experiment in a line: 5-FU cytotoxicity IC50. It counts as cell-based. Particulars: Homo sapiens. As for the experimental part:
(§1) A two factor analysis of variance with interaction was used to assess the effects of AdCMVLuc and AdCMVLuc+Fab-FGF2 MOI on RLU for each of the cell types individually. Due to the nonconstant variability, the logarithm of RLU was analyzed. This transformation stabilized the variability and normalized the errors. A three-factor with interaction analysis of variance was used to assess the effects of MOI, virus type and day on the number of cells per well. Due to the nonconstant variability, the logarithm of cells per well was analyzed. This transformation stabilized the variability and normalized the errors. Global comparisons were done at the 5% significance level and all pairwise comparisons were done at the 1% significance level. A nonlinear model was used to calculate the 5-FU IC50 for each cell type individually. The nonlinear model is given by: number of cells=trough+(peak-trough)/(1+dose/IC50). To assess the correlation of the number of cells per well with 5-FU production, a simple linear regression was done modeling the logarithm of cells per well as a function of percent 5-FU production for each cell and virus type combination individually. Kaplan-Meier estimates on the difference in time to tumor size doubling was used to assess the difference in tumor growth in animals treated with AdCMVCD or AdCMVCD+Fab′-FGF2 plus 5-FC and radiation.
(§2) To determine the relative sensitivity of several hepatobiliary cell lines to 5-FU, the concentration of 5-FU which inhibited cellular growth by 50% (IC50) was determined. Characterization of this information is particularly relevant to the CD/5-FC toxin gene prodrug system, as 5-FU is the toxic metabolic product of cytosine deaminase enzymatic conversion of 5-FC.

The subject of a further data set is SK-ChA-1. As to the kind of experiment: 5-FU cytotoxicity IC50. It counts as cell-based. Particulars: Homo sapiens. As for the experimental part:
as §1, §2

The test system of a further data set is CFPAC-1. The experiment in a line: 5-FU cytotoxicity IC50. Format: cell-based. Particulars: Homo sapiens. As for the experimental part:
as §1, §2

On to `Nc1nc(=O)[nH]cc1F` [5-FC, 5-fluorocytosine], for which the cytotoxicity entry in data set [1] is “no detectable cytotoxicity”. The “5-FC MRS signal, % of its original intensity” value in data set [2] stood at 50%. Moreover, the median survival in data set [3] is listed as 34 days. Further, in data set [4] (Table 6), the “Survival 20%” value turned out to be 61 and the “Survival Median” value came to 50. Moreover, in data set [4] (Table 8), the “Survival 20%” value stood at 34 and the “Survival Median” value is given as 34. Further, in data set [4] (Table 11), the “Survival 20%” value is reported as 60 and the “Survival Median” value was 57. Besides, the median survival in data set [4] (U87MG, no virus/5-FC) worked out at 57 days. Moreover, in data set [5], the “Linear Quadratic Parameters a” value was 0, the “Linear Quadratic Parameters al” value turned out to be 0, the “Linear Quadratic Parameters b” value came to 0.04 and the “Single Hit Multiple Target Do” value is 1.760. In addition, in data set [5], the “Single Hit Multiple Target Dq” value is 3.679.

Take `O=c1[nH]cc(F)c(=O)[nH]1` [5-FU, 5-fluorouracil]: the “5-FU MRS signal, % of the original 5-FC signal” value in data set [2] is given as “approximately 40%”. Moreover, the values for the half-inhibitory concentration (IC50) in the data set with BXPC-3, in the data set on SK-ChA-1 and with CFPAC-1 were 0.134 µg/mL, 0.115 µg/mL and 0.089 µg/mL, respectively.

By IC50 is commonly meant the concentration that inhibits the measured activity by half.
